Source: PubChem BioAssay AID2060893 (Molecular Pharmacology Branch, DTP, NCI, 2025)
pIC50: −log10 of the molar value. Each block holds one compound with its values, some of them ahead of it.

System: K86415-001-R-J1-PDC complex spheroids, viability
Experiment: Anticancer human tumor K86415-001-R-J1-PDC patient-derived lung adenocarcinoma cell line growth inhibition [RAS]
Settings: for pIC50: curve of first compound; for viability, T/C: stronger effect = lower value
Procedure, shortened: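 Tumour cells grown as complex spheroids with HUVEC endothelial cells and mesenchymal stem cells, treated with RAS pathway inhibitor combinations. Each agent spans half-log steps from near clinical Cmax, or 10 microM where Cmax is unknown.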

[1] = second compound 0.000949 µM, first compound 0.0316 µM
[2] = second compound 0.000949 µM, first compound 0.1 µM
[3] = second compound 0.000949 µM, first compound 0.316 µM
[4] = second compound 0.000949 µM, first compound 1 µM
[5] = second compound 0.000949 µM, first compound 3.16 µM
[6] = second compound 0.000949 µM, first compound 10 µM
[7] = second compound 0.003 µM, first compound 0.0316 µM
[8] = second compound 0.003 µM, first compound 0.1 µM
[9] = second compound 0.003 µM, first compound 0.316 µM
[10] = second compound 0.003 µM, first compound 1 µM
[11] = second compound 0.003 µM, first compound 3.16 µM
[12] = second compound 0.003 µM, first compound 10 µM
[13] = second compound 0.00949 µM, first compound 0.0316 µM
[14] = second compound 0.00949 µM, first compound 0.1 µM
[15] = second compound 0.00949 µM, first compound 0.316 µM
[16] = second compound 0.00949 µM, first compound 1 µM
[17] = second compound 0.00949 µM, first compound 3.16 µM
[18] = second compound 0.00949 µM, first compound 10 µM
[19] = second compound 0.03 µM, first compound 0.0316 µM
[20] = second compound 0.03 µM, first compound 0.1 µM
[21] = second compound 0.03 µM, first compound 0.316 µM
[22] = second compound 0.03 µM, first compound 1 µM
[23] = second compound 0.03 µM, first compound 3.16 µM
[24] = second compound 0.03 µM, first compound 10 µM
[25] = second compound 0.0949 µM, first compound 0.0316 µM
[26] = second compound 0.0949 µM, first compound 0.1 µM
[27] = second compound 0.0949 µM, first compound 0.316 µM
[28] = second compound 0.0949 µM, first compound 1 µM
[29] = second compound 0.0949 µM, first compound 3.16 µM
[30] = second compound 0.0949 µM, first compound 10 µM
[31] = second compound 0.3 µM, first compound 0.0316 µM
[32] = second compound 0.3 µM, first compound 0.1 µM
[33] = second compound 0.3 µM, first compound 0.316 µM
[34] = second compound 0.3 µM, first compound 1 µM
[35] = second compound 0.3 µM, first compound 3.16 µM
[36] = second compound 0.3 µM, first compound 10 µM
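Further: spheroids exposed to agents for seven days before readout.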

pIC50 (second compound 0.000949 µM): 7.50
pIC50 (second compound 0.003 µM): > 7.50
pIC50 (second compound 0.00949 µM): > 7.50
pIC50 (second compound 0.03 µM): > 7.50
pIC50 (second compound 0.0949 µM): > 7.50
pIC50 (second compound 0.3 µM): > 7.50
Compound: CC1(O)CCCC1n1c(=O)c(C(F)F)cc2cnc(NC3CCN(S(C)(=O)=O)CC3)nc21 (stereo not given) + CCn1c(-c2cc(N3CCN(C)CC3)cnc2C(C)OC)c2c3cc(ccc31)-c1csc(n1)CC(NC(=O)C1CC1C)C(=O)N1CCCC(N1)C(=O)OCC(C)(C)C2
viability, T/C [1]: 41.9%
viability, T/C [2]: 36.9%
viability, T/C [3]: 36.7%
viability, T/C [4]: 47%
viability, T/C [5]: 57.5%
viability, T/C [6]: 4.99%
viability, T/C [7]: 18.4%
viability, T/C [8]: 19.2%
viability, T/C [9]: 20%
viability, T/C [10]: 23.5%
viability, T/C [11]: 43%
viability, T/C [12]: 4.43%
viability, T/C [13]: 10.9%
viability, T/C [14]: 8.83%
viability, T/C [15]: 10.7%
viability, T/C [16]: 11.5%
viability, T/C [17]: 20.2%
viability, T/C [18]: 5.31%
viability, T/C [19]: 6.62%
viability, T/C [20]: 6.19%
viability, T/C [21]: 6.48%
viability, T/C [22]: 10.7%
viability, T/C [23]: 12.3%
viability, T/C [24]: 4.06%
viability, T/C [25]: 4.05%
viability, T/C [26]: 4.63%
viability, T/C [27]: 4.78%
viability, T/C [28]: 5.15%
viability, T/C [29]: 6.85%
viability, T/C [30]: 5.2%
viability, T/C [31]: 3.61%
viability, T/C [32]: 5.05%
viability, T/C [33]: 4.72%
viability, T/C [34]: 5.49%
viability, T/C [35]: 7.45%
viability, T/C [36]: 4.66%

pIC50 (second compound 0.000949 µM): 5.93
pIC50 (second compound 0.003 µM): > 7.50
pIC50 (second compound 0.00949 µM): > 7.50
pIC50 (second compound 0.03 µM): > 7.50
pIC50 (second compound 0.0949 µM): > 7.50
pIC50 (second compound 0.3 µM): > 7.50
Compound: CCC(CC)c1cc(NC2CCC(N)C2)n2nccc2n1 (stereo not given) + CCn1c(-c2cc(N3CCN(C)CC3)cnc2C(C)OC)c2c3cc(ccc31)-c1csc(n1)CC(NC(=O)C1CC1C)C(=O)N1CCCC(N1)C(=O)OCC(C)(C)C2
viability, T/C [1]: 46.1%
viability, T/C [2]: 48.5%
viability, T/C [3]: 56.8%
viability, T/C [4]: 79%
viability, T/C [5]: 3.84%
viability, T/C [6]: 4.58%
viability, T/C [7]: 25.1%
viability, T/C [8]: 26.1%
viability, T/C [9]: 27.8%
viability, T/C [10]: 36.2%
viability, T/C [11]: 4.27%
viability, T/C [12]: 4.26%
viability, T/C [13]: 9.9%
viability, T/C [14]: 11.2%
viability, T/C [15]: 12.9%
viability, T/C [16]: 11.8%
viability, T/C [17]: 3.06%
viability, T/C [18]: 3.75%
viability, T/C [19]: 5.14%
viability, T/C [20]: 6.25%
viability, T/C [21]: 7.94%
viability, T/C [22]: 6.31%
viability, T/C [23]: 3.03%
viability, T/C [24]: 3.65%
viability, T/C [25]: 4.23%
viability, T/C [26]: 3.98%
viability, T/C [27]: 3.55%
viability, T/C [28]: 2.72%
viability, T/C [29]: 2.97%
viability, T/C [30]: 3.31%
viability, T/C [31]: 2.9%
viability, T/C [32]: 2.91%
viability, T/C [33]: 3.27%
viability, T/C [34]: 2.5%
viability, T/C [35]: 4.29%
viability, T/C [36]: 3.48%

pIC50 (second compound 0.000949 µM): > 8.50
pIC50 (second compound 0.003 µM): > 8.50
pIC50 (second compound 0.00949 µM): > 8.50
pIC50 (second compound 0.03 µM): > 8.50
pIC50 (second compound 0.0949 µM): > 8.50
pIC50 (second compound 0.3 µM): > 8.50
Compound: CCN1CCN(Cc2ccc(Nc3ncc(F)c(-c4cc(F)c5nc(C)n(C(C)C)c5c4)n3)nc2)CC1 + CCn1c(-c2cc(N3CCN(C)CC3)cnc2C(C)OC)c2c3cc(ccc31)-c1csc(n1)CC(NC(=O)C1CC1C)C(=O)N1CCCC(N1)C(=O)OCC(C)(C)C2
viability, T/C (second compound 0.000949 µM, first compound 0.00316 µM): 47.9%
viability, T/C (second compound 0.000949 µM, first compound 0.01 µM): 40.1%
viability, T/C [1]: 34.3%
viability, T/C [2]: 34.2%
viability, T/C [3]: 35.9%
viability, T/C [4]: 40.8%
viability, T/C (second compound 0.003 µM, first compound 0.00316 µM): 21.5%
viability, T/C (second compound 0.003 µM, first compound 0.01 µM): 17.4%
viability, T/C [7]: 17.5%
viability, T/C [8]: 19.1%
viability, T/C [9]: 26.6%
viability, T/C [10]: 23.5%
viability, T/C (second compound 0.00949 µM, first compound 0.00316 µM): 12.5%
viability, T/C (second compound 0.00949 µM, first compound 0.01 µM): 10.9%
viability, T/C [13]: 10.3%
viability, T/C [14]: 11.9%
viability, T/C [15]: 10.6%
viability, T/C [16]: 8.22%
viability, T/C (second compound 0.03 µM, first compound 0.00316 µM): 5.68%
viability, T/C (second compound 0.03 µM, first compound 0.01 µM): 6.29%
viability, T/C [19]: 3.09%
viability, T/C [20]: 5.81%
viability, T/C [21]: 4.33%
viability, T/C [22]: 3.19%
viability, T/C (second compound 0.0949 µM, first compound 0.00316 µM): 3.17%
viability, T/C (second compound 0.0949 µM, first compound 0.01 µM): 3.79%
viability, T/C [25]: 3.86%
viability, T/C [26]: 3.09%
viability, T/C [27]: 2.31%
viability, T/C [28]: 1.64%
viability, T/C (second compound 0.3 µM, first compound 0.00316 µM): 2.92%
viability, T/C (second compound 0.3 µM, first compound 0.01 µM): 3.03%
viability, T/C [31]: 2.27%
viability, T/C [32]: 1.73%
viability, T/C [33]: 1.63%
viability, T/C [34]: 1.66%

pIC50 (second compound 0.000949 µM): > 7.50
pIC50 (second compound 0.003 µM): > 7.50
pIC50 (second compound 0.00949 µM): > 7.50
pIC50 (second compound 0.03 µM): > 7.50
pIC50 (second compound 0.0949 µM): > 7.50
pIC50 (second compound 0.3 µM): > 7.50
Compound: Cc1nc(N2CCC3(CC2)COC(C)C3N)c(CO)nc1Sc1ccnc(N)c1Cl (stereo not given) + CCn1c(-c2cc(N3CCN(C)CC3)cnc2C(C)OC)c2c3cc(ccc31)-c1csc(n1)CC(NC(=O)C1CC1C)C(=O)N1CCCC(N1)C(=O)OCC(C)(C)C2
viability, T/C [1]: 35.8%
viability, T/C [2]: 20.5%
viability, T/C [3]: 9.55%
viability, T/C [4]: 10.9%
viability, T/C [5]: 7.52%
viability, T/C [6]: 7.71%
viability, T/C [7]: 15.5%
viability, T/C [8]: 11.7%
viability, T/C [9]: 7.5%
viability, T/C [10]: 6.79%
viability, T/C [11]: 4.71%
viability, T/C [12]: 4.41%
viability, T/C [13]: 10.5%
viability, T/C [14]: 6.46%
viability, T/C [15]: 5.74%
viability, T/C [16]: 4.02%
viability, T/C [17]: 3.99%
viability, T/C [18]: 4.11%
viability, T/C [19]: 5.58%
viability, T/C [20]: 3.68%
viability, T/C [21]: 4.39%
viability, T/C [22]: 3.48%
viability, T/C [23]: 3.37%
viability, T/C [24]: 3.97%
viability, T/C [25]: 3.82%
viability, T/C [26]: 3.07%
viability, T/C [27]: 3.2%
viability, T/C [28]: 3.97%
viability, T/C [29]: 3.81%
viability, T/C [30]: 3.34%
viability, T/C [31]: 2.66%
viability, T/C [32]: 3.52%
viability, T/C [33]: 3.88%
viability, T/C [34]: 3.34%
viability, T/C [35]: 4.46%
viability, T/C [36]: 2.74%

pIC50 (second compound 0.000949 µM): > 7.50
pIC50 (second compound 0.003 µM): > 7.50
pIC50 (second compound 0.00949 µM): > 7.50
pIC50 (second compound 0.03 µM): > 7.50
pIC50 (second compound 0.0949 µM): > 7.50
pIC50 (second compound 0.3 µM): > 7.50
Compound: NC1c2ccccc2OC12CCN(c1cnc3c(N4CCCc5ncccc54)n[nH]c3n1)CC2 (stereo not given) + CCn1c(-c2cc(N3CCN(C)CC3)cnc2C(C)OC)c2c3cc(ccc31)-c1csc(n1)CC(NC(=O)C1CC1C)C(=O)N1CCCC(N1)C(=O)OCC(C)(C)C2
viability, T/C [1]: 17.9%
viability, T/C [2]: 13.2%
viability, T/C [3]: 7.58%
viability, T/C [4]: 9.76%
viability, T/C [5]: 9.06%
viability, T/C [6]: 7.7%
viability, T/C [7]: 9.27%
viability, T/C [8]: 8.67%
viability, T/C [9]: 6.53%
viability, T/C [10]: 6.35%
viability, T/C [11]: 4.86%
viability, T/C [12]: 5.29%
viability, T/C [13]: 7.91%
viability, T/C [14]: 5.02%
viability, T/C [15]: 5.89%
viability, T/C [16]: 4.63%
viability, T/C [17]: 5.75%
viability, T/C [18]: 4.91%
viability, T/C [19]: 5.17%
viability, T/C [20]: 4.43%
viability, T/C [21]: 5.11%
viability, T/C [22]: 5.46%
viability, T/C [23]: 3.67%
viability, T/C [24]: 5.21%
viability, T/C [25]: 3.52%
viability, T/C [26]: 4.51%
viability, T/C [27]: 4.52%
viability, T/C [28]: 3.8%
viability, T/C [29]: 3.7%
viability, T/C [30]: 4.75%
viability, T/C [31]: 4.69%
viability, T/C [32]: 4.26%
viability, T/C [33]: 4.59%
viability, T/C [34]: 3.96%
viability, T/C [35]: 4.65%
viability, T/C [36]: 4.77%
